Patent US20070149580A1, “USE OF PEROXISOME PROLIFERATOR ACTIVATED RECEPTOR DELTA AGONISTS FOR THE TREATMENT OF MS AND OTHER DEMYELINATING DISEASES” (AVENTIS PHARMACEUTICALS INC., priority 2004, published 2007)

Test system: cultured rat oligodendrocytes
Assay: Quantitative PCR of MBP mRNA in cultured rat oligodendrocytes
Assay type: cell-based
Conditions: FIGS. 2 and 3
Description: • 1. Primary rat oligodendrocyte progenitor cells are obtained from the neocortex of newborn (postnatal days 2-3) rats or mice and are enriched, after removal of microglia, by mechanical separation from the astrocytic monolayer using a modification of the technique originally described by McCarthy and de Vellis (1980). • 2. Remove the meninges from neonatal rat brain and mechanically dissociate tissue. Plate cells on T75 flasks and feed cells with DMEM/F12+10% FBS. • 3. Collect oligodendrocytes growing on the astrocyte bed layer by shaking-off method fourteen days after the original prep date. Centrifuge the suspension and resuspend the cell pellet in serum free media (SFM; DMEM combined with 25 μg/ml transferring, 30 nM triiodothyronine, 20 nM hydrocortisone, 20 nM progesterone, 10 nM biotin, 1× trace elements, 30 nM selenium, 1 μg/ml putrescine, 0.1% BSA, 5 U/ml PenStrep, 10 μg/ml insulin) supplemented with the following growth factors: Platelet derived growth factor-AA (PDGF) and fibroblast growth factor-2 (FGF). • 4. Plate the cells on PDL-coated dishes and incubate at 37° C. with 6-7% CO2. • 5. Media components are replaced every 48 hr to keep the cells in a progenitor state. Progenitor Cell Passaging to Increase Cell Numbers for Screening Assays: • 1. […]
• 1. […] PPAR delta pathway member transcript expression is quantitated using Sybr Green PCR Master Mix. • 4. […]

| Compound | MBP mRNA |
| --- | --- |
| Cc1cc(SCc2sc(-c3ccc(C(F)(F)F)cc3)nc2C)ccc1OCC(=O)O [Compound 1] | enhancement |
| CCCc1c(OCCCOc2ccc(OCC(=O)O)cc2)ccc(C(C)=O)c1O [Compound 2] | enhancement |
